The target of test [1] is Neurotensin receptor type 1 (Rattus norvegicus, UniProt P20789). The test can be described thus: Neurotensin receptor binding affinity by displacement of [3H]- neurotensin.
The test system of test [2] is Mus musculus. The test can be described thus: Antinociceptive activity was determined using the phenylquinone writhing assay by […] administration. Format: functional. For orientation: In writhing tests, fewer writhes than in controls are read as antinociception.
For test [3], the system named is Mus musculus. In words: Antinociceptive activity was determined using the phenylquinone writhing assay by intravenous administration. In kind it is functional.

Here are results for ten compounds from ChEMBL document CHEMBL1126486, “Stable isosteres of neurotensin c-terminal pentapeptides derived by modification of the amide function” (Bioorg Med Chem Lett, 1993).

Where a SMILES comes first, the peptide text is derived from it. [ ]: non-standard residue; d: D form. The star is where a group is joined. Adamantane1carbonyl = O=C(C12CC3CC(CC(C3)C1)C2)*; Orn = NCCC[C@H](N)C(=O)O; Boc = CC(C)(C)OC(=O)*

Sequence of Neurotensin receptor type 1 (P20789 whole entry): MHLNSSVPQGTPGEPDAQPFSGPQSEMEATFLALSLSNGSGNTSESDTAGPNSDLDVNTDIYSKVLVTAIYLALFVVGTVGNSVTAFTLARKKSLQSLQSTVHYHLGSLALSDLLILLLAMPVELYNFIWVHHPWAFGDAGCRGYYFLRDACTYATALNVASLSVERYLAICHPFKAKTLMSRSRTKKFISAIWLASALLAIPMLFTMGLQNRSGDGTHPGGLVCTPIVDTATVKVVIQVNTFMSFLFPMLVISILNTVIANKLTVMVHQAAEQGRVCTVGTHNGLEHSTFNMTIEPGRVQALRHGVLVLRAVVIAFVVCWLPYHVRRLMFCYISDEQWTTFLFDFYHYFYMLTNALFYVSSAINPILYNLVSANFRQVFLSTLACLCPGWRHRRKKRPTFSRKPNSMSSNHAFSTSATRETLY

Compound H-KPYIL-OH yielded a Ki in test [1] of 688 nM. Moreover, the figures for the Activity in the test on Mus musculus [2] and in the test with Mus musculus [3] were 5.9 ug mouse-1 and greater than 81 mg/kg, respectively.
`CC[C@H](C)[C@H](NNCC(=O)[C@H](Cc1ccc(O)cc1)NC(=O)[C@@H]1CCCN1C(=O)[C@H](CCCN)NC(=O)OC(C)(C)C)C(=O)N[C@@H](CC(C)C)C(=O)O` had a Ki in test [1] greater than 10000 nM. In addition, the Activity with Mus musculus [2] is 29 ug mouse-1.
In the same order, the values of `CC[C@H](C)[C@H](NNCC(=O)[C@H](Cc1ccc(O)cc1)NC(=O)[C@@H]1CCCN1NCC(=O)[C@H](CCCCN)NC(=O)C12C[C@H]3C[C@@H](C1)C[C@@H](C2)C3)C(=O)N[C@@H](CC(C)C)C(=O)O` are 3860 nM and greater than 50 ug mouse-1.
Compound `CC[C@H](C)[C@H](NC(=O)[C@H](Cc1ccc(O)cc1)N/C=C/C(=O)[C@@H]1CCCN1C(=O)[C@H](CCCCN)NC(=O)OC(C)(C)C)C(=O)N[C@@H](CC(C)C)C(=O)O` registered a Ki in test [1] of 1630 nM. The figures for the Activity with Mus musculus [2] and in the test on Mus musculus [3] were 22 ug mouse-1 and greater than 27 mg/kg, respectively.
As for `CC[C@H](C)[C@H](NC(=O)[C@H](Cc1ccc(O)cc1)NC(=O)[C@@H]1CCCN1C(=O)[C@H](CCCCN)NC(=O)C12CC3CC(CC(C3)C1)C2)C(=O)N[C@@H](CC(C)C)C(=O)O` (Adamantane1carbonyl-KPYIL-OH), in test [1], the Ki is 117 nM. Also, the Activity with Mus musculus [2] was 0.15 ug mouse-1; in the test on Mus musculus [3] it was 2.2 mg/kg.
Consider `CC[C@H](C)[C@H](NNCC(=O)[C@H](Cc1ccc(O)cc1)NC(=O)[C@@H]1CCCN1C(=O)[C@H](CCCCN)NC(=O)C12C[C@H]3C[C@@H](C1)C[C@@H](C2)C3)C(=O)N[C@@H](CC(C)C)C(=O)O`, for which the inhibition constant (Ki) in test [1] is 5960 nM. This compound had an Activity with Mus musculus [2] greater than 50 ug mouse-1.
The compound `CC[C@H](C)[C@H](NC(=O)[C@H](Cc1ccc(O)cc1)NNCC(=O)[C@@H]1CCCN1C(=O)[C@H](CCCN)NC(=O)OC(C)(C)C)C(=O)N[C@@H](CC(C)C)C(=O)O` came in with an inhibitory constant (Ki) in test [1] of 2980 nM. For the same compound, the Activity in the test on Mus musculus [2] was found to be 0.89 ug mouse-1; in the test with Mus musculus [3], 37 mg/kg.
For `CC[C@H](C)[C@H](NC(=O)[C@H](Cc1ccc(O)cc1)NC(=O)[C@@H]1CCCN1C(=O)[C@H](CCCN)NC(=O)OC(C)(C)C)C(=O)N[C@@H](CC(C)C)C(=O)O` (Boc-[Orn]PYIL-OH) the same measures were 82 nM, 0.00097 ug mouse-1 and 0.74 mg/kg.
For `CC[C@H](C)[C@H](NC(=O)[C@H](Cc1ccc(O)cc1)NNCC(=O)[C@@H]1CCCN1C(=O)[C@H](CCCCN)NC(=O)C12C[C@H]3C[C@@H](C1)C[C@@H](C2)C3)C(=O)N[C@@H](CC(C)C)C(=O)O` the same measures were 1610 nM, 4.5 ug mouse-1 and 20 mg/kg.
For `CC[C@H](C)[C@H](NC(=O)[C@H](Cc1ccc(O)cc1)NC(=O)[C@@H]1CCCN1C(=O)[C@H](CCCCN)NC(=O)OC(C)(C)C)C(=O)N[C@@H](CC(C)C)C(=O)O` (Boc-KPYIL-OH) the same measures were 63 nM, 0.018 ug mouse-1 and 3 mg/kg.

As usually defined, the Ki is a dissociation constant, usually derived from enzyme kinetics or from competition with a known ligand. A lower Ki goes with higher affinity.
